In patent US8389011B2, “Pharmaceutical compositions of cholesteryl ester transfer protein inhibitors” (Bend Research, Inc., priority 2000, dated 2013):

Assay: In vitro dissolution test, microcentrifuge method, in model fasted duodenal solution (MFDS)
Format: physicochemical
Details: summary Table 48
Description: The compositions comprising the CETP inhibitor and concentration-enhancing polymer provide enhanced concentration of the dissolved CETP inhibitor in in vitro dissolution tests. It has been determined that enhanced drug concentration in in vitro dissolution tests in Model Fasted Duodenal (MFD) solution or Phosphate Buffered Saline (PBS) is a good indicator of in vivo performance and bioavailability. An appropriate PBS solution is an aqueous solution comprising 20 mM sodium phosphate (Na2HPO4), 47 mM potassium phosphate (KH2PO4), 87 mM NaCl, and 0.2 mM KCl, adjusted to pH 6.5 with NaOH. An appropriate MFD solution is the same PBS solution wherein additionally is present 7.3 mM sodium taurocholic acid and 1.4 mM of 1-palmitoyl-2-oleyl-sn-glycero-3-phosphocholine. In particular, a composition of the present invention can be dissolution-tested by adding it to MFD or PBS solution and agitating to promote dissolution.
A typical in vitro test to evaluate enhanced drug concentration in aqueous solution can be conducted by (1) adding with agitation a sufficient quantity of control composition, typically the CETP inhibitor alone, to the in vitro test medium, typically MFD or PBS solution, to achieve equilibrium concentration of the CETP inhibitor; (2) adding with agitation a sufficient quantity of test composition (e.g., the CETP inhibitor and polymer) in an equivalent test medium, such that if all the CETP inhibitor dissolved, the theoretical concentration of CETP inhibitor would exceed the equilibrium concentration of the CETP inhibitor by a factor of at least 10, and preferably a factor of at least 100; and (3) comparing the measured MDC and/or aqueous concentration versus time AUC of the test composition in the test medium with the equilibrium concentration, and/or the aqueous concentration versus time AUC of the control composition. In conducting such a dissolution test, the amount of test composition or control composition used is an amount such that if all of the CETP inhibitor dissolved the CETP inhibitor concentration would be at least 10-fold and preferably at least 100-fold that of the equilibrium concentration. Indeed, for some extremely insoluble CETP inhibitors, in order to identify the MDC achieved it may be necessary to use an amount of test composition such that if all of the CETP inhibitor dissolved, the CETP inhibitor concentration would be 10,000-fold or even more, that of the equilibrium concentration of the CETP inhibitor.
The concentration of dissolved CETP inhibitor is typically measured as a function of time by sampling the test medium and plotting CETP inhibitor concentration in the test medium vs. time so that the MDC can be ascertained. The MDC is taken to be the maximum value of dissolved CETP inhibitor measured over the duration of the test.
To avoid large CETP inhibitor particulates which would give an erroneous determination, the test solution is either filtered or centrifuged. “Dissolved CETP inhibitor” is typically taken as that material that either passes a 0.45 μm syringe filter or, alternatively, the material that remains in the supernatant following centrifugation. Filtration can be conducted using a 13 mm, 0.45 μm polyvinylidine difluoride syringe filter sold by Scientific Resources under the trademark TITAN®. Centrifugation is typically carried out in a polypropylene microcentrifuge tube by centrifuging at 13,000 G for 60 seconds. Other similar filtration or centrifugation methods can be employed and useful results obtained. For example, using other types of microfilters may yield values somewhat higher or lower (±10-40%) than that obtained with the filter specified above but will still allow identification of preferred dispersions. […]

AUC90 (AUC through 90 min): <88 min-μg/ml
Cmax, 90 (maximum Drug 2 concentration through 90 min): <1 µg/mL
SMILES: CCOC(=O)N1c2ccc(C(F)(F)F)cc2[C@@H](N(Cc2cc(C(F)(F)F)cc(C(F)(F)F)c2)C(=O)OC)C[C@H]1CC [Control 2, [2R,4S]4-[(3,5-bis-trifluoromethyl-benzyl)-methoxycarbonyl-amino]-2-ethyl-6-trifluoromethyl-3,4-dihydro-2H-quinoline-1-carboxylic acid ethyl ester]
